Experimental data: the SangsterLogP compilation

experiment: method code SF-AS, from DOI: 10.1081/jlc-120027619; details: not given

Row | Compound | logP
1 | Cc1cccc2c3c(ccc12)C1=C(C(=O)C3=O)[C@@H](C)CO1 | 3.14

experiment: method code RP-HPLC, from DOI: 10.1081/jlc-120027619; details: pH 3.1

Row | logD | Compound
2 | 5.4 | Cc1coc2c1C(=O)C(=O)c1c-2ccc2c1CCCC2(C)C
3 | 3.18 | O=C1c2cccc(O)c2C(=O)c2c(O)cc(CO)cc21
4 | 4.93 | COc1cc(O)c2c(c1)C(=O)c1cc(C)cc(O)c1C2=O
5 | 0.11 | O=C(O)C(O)Cc1ccc(O)c(O)c1 (configuration not stated)
6 | 4.39 | Cc1cc(O)c2c(c1)C(=O)c1cccc(O)c1C2=O
7 | 4.65 | Cc1coc2c1C(=O)C(=O)c1c-2ccc2c(C)cccc12
8 | 3.68 | O=C(O)c1cc(O)c2c(c1)C(=O)c1cccc(O)c1C2=O
9 | 0.82 | O=Cc1ccc(O)c(O)c1
10 | 1.34 | O=c1c(-c2ccc(O)cc2)coc2c([C@@H]3O[C@H](CO)[C@@H](O)[C@H](O)[C@H]3O)c(O)ccc12
11 | 4.48 | Cc1cc(O)c2c(c1)C(=O)c1cc(O)cc(O)c1C2=O

Row | Compound | logD
12 | C[C@H]1COC2=C1C(=O)C(=O)c1c2ccc2c1CCCC2(C)C | 4.72
